Measurements from patent US20240012010A1, “METHODS OF MONITORING ALPHA-1 ANTITRYPSIN (AAT) DEFICIENCY BY MEASURING POLYMERISED AAT” (Vertex Pharmaceuticals Incorporated, priority 2020, published 2024).

Target: T1, AAT polymer (Z variant of the human allele of AAT) (Homo sapiens, UniProt P01009, E366K/V237A)
T1 construct: At study termination, plasma was collected via cardiac puncture; from tissue; host or cells: plasma of transgenic PiZ mice (C57BL/6 background) carrying the human SERPINA1 Z gene
Experiment: Pharmacodynamic effect of Compound 2 treatment on polymer levels in a PiZ mouse model (polymer sandwich ELISA of plasma)
Format: in vivo
Conditions: male PiZ hemizygous mice
Description: Eleven week-old male PiZ mice, hemizygous for the Z variant of the human allele of AAT, were orally administered a suspension of either vehicle or Compound 2 QD at 50 and 100 mg/kg/day for 72 hours or 5, 16, 50, and 100 mg/kg/day for 28 days. At study termination, plasma was collected via cardiac puncture and liver tissue was collected and preserved in 10% neutral buffered formalin.
Liver polymer staining was assessed as the % area of liver tissue that stains positively by monoclonal antibody 2C1 immunohistochemistry.
High bind EIA/RIA microplates (Costar, 3590) were coated with 100 μL mouse monoclonal anti-human AAT polymer antibody (Hycult Biotech, HM2289, clone 2C1) diluted to 2 μg/mL in carbonate-bicarbonate buffer (0.2M, pH 9.4) and incubated for 90 minutes at 37° C. (while shaking) or alternatively overnight (up to 72 hours) at 4° C. (still). […] Following color development, 100 μL 1N sulfuric acid was added to stop the reaction and absorbance was immediately measured at 450 nm and 650 nm for background subtraction with a microplate reader (Molecular Devices, SpectraMax M3). […]

T1 sequence (P01009 25-418 V237A/E366K): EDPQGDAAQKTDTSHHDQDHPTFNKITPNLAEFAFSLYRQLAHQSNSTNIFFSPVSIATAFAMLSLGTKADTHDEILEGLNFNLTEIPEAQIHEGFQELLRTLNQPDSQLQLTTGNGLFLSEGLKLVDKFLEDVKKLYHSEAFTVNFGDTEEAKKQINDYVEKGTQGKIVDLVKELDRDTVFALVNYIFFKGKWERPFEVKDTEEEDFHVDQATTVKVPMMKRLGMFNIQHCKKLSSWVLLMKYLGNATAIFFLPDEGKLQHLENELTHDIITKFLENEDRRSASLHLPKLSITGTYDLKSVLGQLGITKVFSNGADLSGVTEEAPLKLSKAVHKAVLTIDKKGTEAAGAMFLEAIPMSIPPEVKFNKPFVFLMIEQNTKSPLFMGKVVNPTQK

- AAT plasma polymer levels (QD 5, 16, 50 and 100 mg/kg/day PO for 28 days, vs vehicle (FIG. 5B)): dose response decrease
- AAT plasma polymer levels (QD 50 and 100 mg/kg/day PO for 72 hours, vs vehicle (FIG. 5A)): dose response decrease
SMILES: O=C(O)c1ccc(-c2c(C3CCOCC3)n(-c3ccc(F)c(F)c3)c3cc4cn[nH]c4cc23)cc1 [Compound 2]
